In patent US20150010928A1, “MEANS AND METHODS FOR ASSESSING AN ENDOCRINE DISEASE OR DISORDER” (priority 2012, published 2015):
Marks after values point to notes of the source that are not given here.

Test system: male rats
Assay: Plasma metabolite profiling (GC-MS, LC-MS, SPE-LC-MS) in male rats dosed once daily over 28 days (OECD 407)
Type: in vivo, rat
Settings: high dose; for Alanine, ratio versus control / Androstenedione, ratio versus control / Cholesterol, ratio versus control / Glycine, ratio versus control / Heptadecanoic acid (C17:0), ratio versus control / Testosterone, ratio versus control / Threonine, ratio versus control / Uric acid, ratio versus control / alpha-Tocopherol, ratio versus control: male rats, plasma
Method: Each dose group in the studies consisted of five rats per sex. Additional groups of each 5 male and female animals served as controls. […] All animals of the animal population were kept under the same constant temperature (20-24±3° C.) and the same constant humidity (30-70%). The animals of the animal population were fed ad libitum. The food to be used was essentially free of chemical or microbial contaminants. Drinking water was also offered ad libitum. Accordingly, the water was free of chemical and microbial contaminants as laid down in the European Drinking Water Directive 98/83/EG. The illumination period was 12 hours light followed by 12 hours darkness (12 hours light, from 6:00 to 18:00, and 12 hours darkness, from 18:00 to 6:00). […] The test substances (compounds) in the Tables 1 to 17 below were dosed and administered as described in the Table 18.
In the morning of day 7, 14, and 28, blood was taken from the retroorbital venous plexus from fasted anaesthetized animals. From each animal, 1 ml of blood was collected with EDTA as anticoagulant. The samples were centrifuged for generation of plasma. All plasma samples were covered with a N2 atmosphere and then stored at −80° C. until analysis.
For mass spectrometry-based metabolite profiling analyses plasma samples were extracted and a polar and a non-polar (lipid) fraction was obtained. For GC-MS analysis, the non-polar fraction was treated with methanol under acidic conditions to yield the fatty acid methyl esters. Both fractions were further derivatised with O-methyl-hydroxyamine hydrochloride and pyridine to convert Oxogroups to O-methyloximes and subsequently with a silylating agent before analysis. In LC-MS analysis, both fractions were reconstituted in appropriate solvent mixtures. HPLC was performed by gradient elution on reversed phase separation columns. Mass spectrometric detection which allows target and high sensitivity MRM (Multiple Reaction Monitoring) profiling in parallel to a full screen analysis was applied as described in WO2003073464.
Steroids and their metabolites were measured by online SPE-LC-MS (Solid phase extraction-LC-MS).
Following comprehensive analytical validation steps, the data for each analyte were normalized against data from pool samples. These samples were run in parallel through the whole process to account for process variability. The significance of treatment group values specific for sex, treatmentduration and metabolite was determined by comparing means of the treated groups to the means of the respective untreated control groups using WELCH-test and quantified with treatment ratios versus control and p-values.
The identification of the most important biomarkers per toxicity pattern was done by a ranking of the analytes in the tables below. Therefore the metabolic changes in reference treatments of a given pattern (shown in the table) were compared with changes of the same metabolite in other unrelated treatments. […] The maximum absolute value of the respective TVALUE was taken to indicate the most important metabolite for the pattern.

## C#C[C@]1(O)CC[C@H]2[C@@H]3CCc4cc(O)ccc4[C@H]3CC[C@@]21C [17-alpha-Ethynylestradiol]
m7, Table 14b
  Cholesterol: 0.19
  Choline plasmalogen No 02: 0.28
  Lignoceric acid (C24:0): 0.2
  Sphingomyelin (d18:1, C16:0): 0.2
  Sphingomyelin (d18:2, C16:0): 0.19
  erythro-Sphingosine (d18:1): 0.09
m7, Table 12d
  3,4-Dihydroxyphenylacetic acid (DOPAC): 1.01
  Choline plasmalogen No 02: 0.28 *
  Choline plasmalogen No 03: 0.41 *
  Coenzyme Q10: 0.16 *
  Elaidic acid (C18:trans[9]1): 0.54 *
  Glycerol phosphate, lipid fraction: 0.22 *
  Glycerol, polar fraction: 0.68 *
  Lysophosphatidylcholine (C17:0): 0.38 *
  Lysophosphatidylcholine (C18:0): 0.77 *
  Lysophosphatidylcholine (C20:4): 0.78 *
  Lysophosphatidylethanolamine (C22:0): 0.28 *
  Phosphatidylcholine (C18:0, C20:3): 0.21 *
  Phosphatidylcholine No 04: 0.17 *
  Sphingomyelin (d18:1, C16:0): 0.32 *
  Sphingomyelin (d18:2, C16:0): 0.19 *
  Sphingomyelin (d18:2,C18:0): 0.24 *
  Threonic acid: 0.47 *
  Tyrosine: 1.09
  beta-Sitosterol: 0.3 *
  myo-Inositol, lipid fraction: 0.22 *
m14, Table 14b
  Cholesterol: 0.24
  Choline plasmalogen No 02: 0.46
  Lignoceric acid (C24:0): 0.21
  Sphingomyelin (d18:1, C16:0): 0.37
  Sphingomyelin (d18:2, C16:0): 0.24
  erythro-Sphingosine (d18:1): 0.13
m14, Table 12d
  3,4-Dihydroxyphenylacetic acid (DOPAC): 0.58 *
  Choline plasmalogen No 02: 0.46 *
  Choline plasmalogen No 03: 0.43 *
  Coenzyme Q10: 0.31 *
  Elaidic acid (C18:trans[9]1): 0.63 *
  Glycerol phosphate, lipid fraction: 0.31 *
  Glycerol, polar fraction: 0.84
  Lysophosphatidylcholine (C17:0): 0.58 *
  Lysophosphatidylcholine (C18:0): 0.84 *
  Lysophosphatidylcholine (C20:4): 0.83 *
  Lysophosphatidylethanolamine (C22:0): 0.45 *
  Phosphatidylcholine (C18:0, C20:3): 0.47 *
  Phosphatidylcholine No 04: 0.42 *
  Sphingomyelin (d18:1, C16:0): 0.4 *
  Sphingomyelin (d18:2, C16:0): 0.24 *
  Sphingomyelin (d18:2,C18:0): 0.18 *
  Threonic acid: 0.52 *
  Tyrosine: 0.96
  beta-Sitosterol: 0.38 *
  myo-Inositol, lipid fraction: 0.29 *
m28, Table 14b
  Cholesterol: 0.39
  Choline plasmalogen No 02: 0.55
  Lignoceric acid (C24:0): 0.43
  Sphingomyelin (d18:1, C16:0): 0.44
  Sphingomyelin (d18:2, C16:0): 0.34
  erythro-Sphingosine (d18:1): 0.24
m28, Table 12d
  3,4-Dihydroxyphenylacetic acid (DOPAC): 0.96
  Choline plasmalogen No 02: 0.55 *
  Choline plasmalogen No 03: 0.48 *
  Coenzyme Q10: 0.37 *
  Elaidic acid (C18:trans[9]1): 0.48 *
  Glycerol phosphate, lipid fraction: 0.29 *
  Glycerol, polar fraction: 0.63 *
  Lysophosphatidylcholine (C17:0): 0.67 *
  Lysophosphatidylcholine (C18:0): 0.89 *
  Lysophosphatidylcholine (C20:4): 0.88 *
  Lysophosphatidylethanolamine (C22:0): 0.54 *
  Phosphatidylcholine (C18:0, C20:3): 0.79 *
  Phosphatidylcholine No 04: 0.64 *
  Sphingomyelin (d18:1, C16:0): 0.65 *
  Sphingomyelin (d18:2, C16:0): 0.34 *
  Sphingomyelin (d18:2,C18:0): 0.41 *
  Threonic acid: 0.54 *
  Tyrosine: 0.83 *
  beta-Sitosterol: 0.7 *
  myo-Inositol, lipid fraction: 0.53 *

## CCNC(=O)[C@@H]1CCCN1C(=O)[C@H](CCCNC(=N)N)NC(=O)[C@H](CC(C)C)NC(=O)[C@@H](COC(C)(C)C)NC(=O)[C@H](Cc1ccc(O)cc1)NC(=O)[C@H](CO)NC(=O)[C@H](Cc1c[nH]c2ccccc12)NC(=O)[C@H](Cc1cnc[nH]1)NC(=O)[C@@H]1CCC(=O)N1 [Buserelin acetate a.c., Buserelin acetate]
Day 7
  Alanine, ratio versus control: 0.67 *
  Androstenedione, ratio versus control: 0.17 *
  Cholesterol, ratio versus control: 0.9 *
  Glycine, ratio versus control: 0.83 *
  Heptadecanoic acid (C17:0), ratio versus control: 0.81 *
  Testosterone, ratio versus control: 0.11 *
  Threonine, ratio versus control: 1.01 *
  Uric acid, ratio versus control: 0.59 *
  alpha-Tocopherol, ratio versus control: 0.88 *
Day 14
  Alanine, ratio versus control: 0.74 *
  Androstenedione, ratio versus control: 0.5 *
  Cholesterol, ratio versus control: 0.84 *
  Glycine, ratio versus control: 0.91^
  Heptadecanoic acid (C17:0), ratio versus control: 0.94 *
  Testosterone, ratio versus control: 0.19 *
  Threonine, ratio versus control: 0.92 *
  Uric acid, ratio versus control: 076 *
  alpha-Tocopherol, ratio versus control: 0.93 *
Day 28
  Alanine, ratio versus control: 0.78^
  Androstenedione, ratio versus control: 0.35 *
  Cholesterol, ratio versus control: 0.91^
  Glycine, ratio versus control: 0.91 *
  Heptadecanoic acid (C17:0), ratio versus control: 0.91 *
  Testosterone, ratio versus control: 0.08 *
  Threonine, ratio versus control: 1.01^
  Uric acid, ratio versus control: 0.85 *
  alpha-Tocopherol, ratio versus control: 1.03^

## OCCNCCO [Diethanolamine]
m7, Table 14b
  Cholesterol: 0.75
  Choline plasmalogen No 02: 0.89
  Lignoceric acid (C24:0): 0.7
  Sphingomyelin (d18:1, C16:0): 0.68
  Sphingomyelin (d18:2, C16:0): 0.74
  erythro-Sphingosine (d18:1): 0.62
m14, Table 14b
  Cholesterol: 0.72
  Choline plasmalogen No 02: 0.68
  Lignoceric acid (C24:0): 0.68
  Sphingomyelin (d18:1, C16:0): 0.71
  Sphingomyelin (d18:2, C16:0): 0.73
  erythro-Sphingosine (d18:1): 0.58
m28, Table 14b
  Cholesterol: 0.69
  Choline plasmalogen No 02: 0.74
  Lignoceric acid (C24:0): 0.67
  Sphingomyelin (d18:1, C16:0): 0.7
  Sphingomyelin (d18:2, C16:0): 0.63
  erythro-Sphingosine (d18:1): 0.52
